Experimental data from US8258134B2, “Pyridazinone glucokinase activators” (Hoffmann-La Roche Inc., priority 2008, dated 2012).

Target: T1, Recombinant human liver GK1 (GST-GK) (Homo sapiens, UniProt P35557)
T1 construct: made in house; host or cells: E. coli
T1 sequence (P35557 1-466 isoform P35557-2): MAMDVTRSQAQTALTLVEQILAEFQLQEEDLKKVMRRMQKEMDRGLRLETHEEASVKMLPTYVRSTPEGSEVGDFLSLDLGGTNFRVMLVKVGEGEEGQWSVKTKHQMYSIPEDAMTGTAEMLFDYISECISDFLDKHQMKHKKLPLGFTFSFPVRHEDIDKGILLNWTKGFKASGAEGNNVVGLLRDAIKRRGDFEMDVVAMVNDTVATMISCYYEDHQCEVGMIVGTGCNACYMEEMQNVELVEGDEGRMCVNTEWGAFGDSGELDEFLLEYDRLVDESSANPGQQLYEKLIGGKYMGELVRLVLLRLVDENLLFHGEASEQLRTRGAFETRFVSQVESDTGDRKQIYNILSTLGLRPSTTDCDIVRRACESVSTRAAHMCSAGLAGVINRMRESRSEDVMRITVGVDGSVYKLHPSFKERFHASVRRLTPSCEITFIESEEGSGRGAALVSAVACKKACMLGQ
Assay: Glucokinase in vitro assay (G6PDH-coupled NADH generation, OD340)
Assay type: biochemical
Conditions: 5 mM D-glucose; for SC1.5 average (concentration of activator that produced a 50% increase in the activity of GK): 30° C., pH 7.1, 10% DMSO
In short: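 GST-tagged recombinant GK1 expressed in E. coli, run at 30° C, pH 7.1 Hepes with 5 mM D-glucose, 1 mM ATP and 1.8 mM NAD, G6PDH-coupled. Compounds were in 10% DMSO final, with a 10 min pre-incubation before enzyme addition. OD340/min rate measured; SC1.5 is the activator concentration giving a 50% increase in activity.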

SMILES | SC1.5 average (concentration of activator that produced a 50% increase in the activity of GK) [µM] | fold activation @ 30 uM (30 uM test compound) [fold]
CC(C)(O)Cn1ccc(NC(=O)C(CC2CCCC2)n2ncc(Oc3cccc4ncccc34)cc2=O)n1 (centres unmarked) [Example 38, 3-Cyclopentyl-N-[1-(2-hydroxy-2-methyl-propyl)-1H-pyrazol-3-yl]-2-[6-oxo-4-(quinolin-5-yloxy)-6H-pyridazin-1-yl]-propionamide] | 0.776 | 
CC(C)(O)Cn1ccc(NC(=O)C(CC2CCCC2)n2ncc(Oc3cccc4cccnc34)cc2=O)n1 (centres unmarked) [Example 39, 3-Cyclopentyl-N-[1-(2-hydroxy-2-methyl-propyl)-1H-pyrazol-3-yl]-2-[6-oxo-4-(quinolin-8-yloxy)-6H-pyridazin-1-yl]-propionamide] | 0.499 | 
CC(=O)c1ccccc1Oc1cnn(C(CC2CCCC2)C(=O)Nc2ccn(CC(C)(C)O)n2)c(=O)c1 (centres unmarked) [Example 40, 2-[4-(2-Acetyl-phenoxy)-6-oxo-6H-pyridazin-1-yl]-3-cyclopentyl-N-[1-(2-hydroxy-2-methyl-propyl)-1H-pyrazol-3-yl]-propionamide] | 0.228 | 
CC(C)(O)Cn1ccc(NC(=O)C(CC2CCCC2)n2ncc(Oc3ccccc3C(=O)N3CCCC3)cc2=O)n1 (centres unmarked) [Example 41, 3-Cyclopentyl-N-[1-(2-hydroxy-2-methyl-propyl)-1H-pyrazol-3-yl]-2-{6-oxo-4-[2-(pyrrolidine-1-carbonyl)-phenoxy]-6H-pyridazin-1-yl}-propionamide] | 8.414 | 
CC(C)CC(C(=O)Nc1ccn(CC(C)(C)O)n1)n1ncc(Oc2c(F)cccc2F)cc1=O (centres unmarked) [Example 42, 2-[4-(2,6-Difluoro-phenoxy)-6-oxo-6H-pyridazin-1-yl]-4-methyl-pentanoic acid [1-(2-hydroxy-2-methyl-propyl)-1H-pyrazol-3-yl]-amide] | 0.349 | 
CC(C)(O)Cn1ccc(NC(=O)C(CC2CCOCC2)n2ncc(Oc3c(F)cccc3F)cc2=O)n1 (centres unmarked) [Example 43, 2-[4-(2,6-Difluoro-phenoxy)-6-oxo-6H-pyridazin-1-yl]-N-[1-(2-hydroxy-2-methyl-propyl)-1H-pyrazol-3-yl]-3-(tetrahydro-pyran-4-yl)-propionamide] | 0.232 | 
CC(C)(O)Cn1ccc(NC(=O)C(Cc2ccccc2)n2ncc(Oc3c(F)cccc3F)cc2=O)n1 (centres unmarked) [Example 44, 2-[4-(2,6-Difluoro-phenoxy)-6-oxo-6H-pyridazin-1-yl]-N-[1-(2-hydroxy-2-methyl-propyl)-1H-pyrazol-3-yl]-3-phenyl-propionamide] | 1.032 | 
Cn1nc(NC(=O)C(CC2CCCC2)n2ncc(Oc3ccccc3C(F)(F)F)cc2=O)cc1C(F)(F)F (centres unmarked) [Example 45, 3-Cyclopentyl-N-(1-methyl-5-trifluoromethyl-1H-pyrazol-3-yl)-2-[6-oxo-4-(2-trifluoromethyl-phenoxy)-6H-pyridazin-1-yl]-propionamide] | > 30 | 1.15
CC(C)(O)Cn1ccc(NC(=O)C(CC2CCCC2)n2ncc(Cc3ccccc3C(F)(F)F)cc2=O)n1 (centres unmarked) [Example 46, 3-Cyclopentyl-N-[1-(2-hydroxy-2-methyl-propyl)-1H-pyrazol-3-yl]-2-[6-oxo-4-(2-trifluoromethyl-benzyl)-6H-pyridazin-1-yl]-propionamide] | 1.947 | 
CC(C)(O)Cn1ccc(NC(=O)C(CC2CCCC2)n2ncc(Cc3cccc(C(F)(F)F)c3)cc2=O)n1 (centres unmarked) [Example 47, 3-Cyclopentyl-N-[1-(2-hydroxy-2-methyl-propyl)-1H-pyrazol-3-yl]-2-[6-oxo-4-(3-trifluoromethyl-benzyl)-6H-pyridazin-1-yl]-propionamide] | 1.366 | 
CC(C)(O)Cn1ccc(NC(=O)C(CC2CCCC2)n2ncc(Cc3c(F)cccc3F)cc2=O)n1 (centres unmarked) [Example 48, 3-Cyclopentyl-2-[4-(2,6-difluoro-benzyl)-6-oxo-6H-pyridazin-1-yl]-N-[1-(2-hydroxy-2-methyl-propyl)-1H-pyrazol-3-yl]-propionamide] | 1.495 | 
CC(C)(O)Cn1ccc(NC(=O)C(CC2CCC2)n2ncc(Oc3c(F)cccc3F)cc2=O)n1 (centres unmarked) [Example 49, 3-Cyclobutyl-2-[4-(2,6-difluoro-phenoxy)-6-oxo-6H-pyridazin-1-yl]-N-[1-(2-hydroxy-2-methyl-propyl)-1H-pyrazol-3-yl]-propionamide] | 0.305 | 
CC(C)(O)Cn1ccc(NC(=O)C(Cc2c(F)cccc2F)n2ncc(Oc3c(F)cccc3F)cc2=O)n1 (centres unmarked) [Example 50, 2-[4-(2,6-Difluoro-phenoxy)-6-oxo-6H-pyridazin-1-yl]-3-(2,6-difluoro-phenyl)-N-[1-(2-hydroxy-2-methyl-propyl)-1H-pyrazol-3-yl]-propionamide] | 0.466 | 
CC(C)(O)Cn1ccc(NC(=O)C(CC2CCCCC2)n2ncc(Oc3c(F)cccc3F)cc2=O)n1 (centres unmarked) [Example 51, 3-Cyclohexyl-2-[4-(2,6-difluoro-phenoxy)-6-oxo-6H-pyridazin-1-yl]-N-[1-(2-hydroxy-2-methyl-propyl)-1H-pyrazol-3-yl]-propionamide] | 0.087 | 

The remaining lines, values ahead:

SC1.5 average (concentration of activator that produced a 50% increase in the activity of GK) [µM] | fold activation @ 30 uM (30 uM test compound) [fold] | SMILES
0.17 |  | CC(C)C[C@@H](C(=O)Nc1ccn(CC(C)(C)O)n1)n1ncc(Oc2c(F)cccc2F)cc1=O [Example 42A, (S)-2-[4-(2,6-Difluoro-phenoxy)-6-oxo-6H-pyridazin-1-yl]-4-methyl-pentanoic acid [1-(2-hydroxy-2-methyl-propyl)-1H-pyrazol-3-yl]-amide]
5.981 |  | CC(C)C[C@H](C(=O)Nc1ccn(CC(C)(C)O)n1)n1ncc(Oc2c(F)cccc2F)cc1=O [Example 42B, (R)-2-[4-(2,6-Difluoro-phenoxy)-6-oxo-6H-pyridazin-1-yl]-4-methyl-pentanoic acid [1-(2-hydroxy-2-methyl-propyl)-1H-pyrazol-3-yl]-amide]
0.148 |  | CC(C)(O)Cn1ccc(NC(=O)[C@H](CC2CCOCC2)n2ncc(Oc3c(F)cccc3F)cc2=O)n1 [Example 43A, (S)-2-[4-(2,6-Difluoro-phenoxy)-6-oxo-6H-pyridazin-1-yl]-N-[1-(2-hydroxy-2-methyl-propyl)-1H-pyrazol-3-yl]-3-(tetrahydro-pyran-4-yl)-propionamide]
7.536 |  | CC(C)(O)Cn1ccc(NC(=O)[C@@H](CC2CCOCC2)n2ncc(Oc3c(F)cccc3F)cc2=O)n1 [Example 43B, (R)-2-[4-(2,6-Difluoro-phenoxy)-6-oxo-6H-pyridazin-1-yl]-N-[1-(2-hydroxy-2-methyl-propyl)-1H-pyrazol-3-yl]-3-(tetrahydro-pyran-4-yl)-propionamide]
0.038 |  | CC(C)(O)Cn1ccc(NC(=O)[C@H](CC2CCCCC2)n2ncc(Oc3c(F)cccc3F)cc2=O)n1 [Example 51A, (S)-3-Cyclohexyl-2-[4-(2,6-difluoro-phenoxy)-6-oxo-6H-pyridazin-1-yl]-N-[1-(2-hydroxy-2-methyl-propyl)-1H-pyrazol-3-yl]-propionamide]
